From publication PMC11984924, “Dipeptidic Phosphonates: Potent Inhibitors of Pseudomonas aeruginosa Elastase B Showing Efficacy in a Murine Keratitis Model” (Advanced Science, 2025) come the findings set out here.

For data set [1], the target named is T1, LasB (Pseudomonas aeruginosa, UniProt Q02RJ6).
T1 construct: made in house
The experiment in a line: In vitro LasB inhibition assay. As to conditions: IC50 LasB inhibition. The class given is biochemical. As for the experimental part: 3.1 In vitro inhibition assays
LasB was expressed and purified as described previously.[3] In vitro inhibition assays (LasB,
MMPs, TACE). All in vitro inhibition assays were performed as described previously.[10] […]
Fluorescence signals were measured using a CLARIOstar plate reader (BMG
Labtech, Ortenberg, Germany). […]

The test system of data set [2] is HepG2 cells. The experiment in a line: Cytotoxicity HepG2. The data set is classed as cell-based. The note with it: Homo sapiens, HepG2, read-out: HepG2 % inhibition at 100 µM (metabolic activity), 48 hours. As for the experimental part: HepG2 (human hepatocellular carcinoma), HEK293 (human embryonal kidney) and A549
(human lung carcinoma) cells (2x10^5 cells per well) were seeded in 24-well in flat-bottomed
plates. Culturing of cells, incubations and OD measurements were performed as described
previously with small modifications.[14] Twenty-four hours after seeding the cells the incubation
was started by the addition of compounds in a final DMSO concentration of 1%. The living cell
mass was determined after 48 hours in a PHERAstar microplate reader (BMG labtech,
Ortenberg, Germany). Two independent measurements were performed for each compound.

Data set [3] is described as follows: Lipophilicity determination (HPLC-based LogD7.4). The data set is classed as physicochemical. The note with it: C18 column; pH 7.4, HPLC-based.
Description: 3.3 Lipophilicity determination
LogD7.4 was analyzed using an HPLC−based method. The UV retention time of reference compounds with known LogD7.4 was determined and plotted toward their LogD7.4. Linear regression was used to determine the LogD7.4 of unknown compounds. Analysis was performed using a Vanquish Flex HPLC system with variable wavelength detector (Thermo Fisher, Dreieich, Germany) with the following conditions: EC150/2 NUCLEODUR C18 Pyramid column, 5 μM (Macherey Nagel, Düren, Germany); eluent A: 50 mM NH4OAc pH 7.4, eluent B: acetonitrile, and flow: 0.6 mL/min.
The target of data set [4] is T2, MMP-2 (Homo sapiens, UniProt P08253).
T2 construct: purchased AnaSpec (Fremont, CA, USA)
T2 sequence (P08253 110-660): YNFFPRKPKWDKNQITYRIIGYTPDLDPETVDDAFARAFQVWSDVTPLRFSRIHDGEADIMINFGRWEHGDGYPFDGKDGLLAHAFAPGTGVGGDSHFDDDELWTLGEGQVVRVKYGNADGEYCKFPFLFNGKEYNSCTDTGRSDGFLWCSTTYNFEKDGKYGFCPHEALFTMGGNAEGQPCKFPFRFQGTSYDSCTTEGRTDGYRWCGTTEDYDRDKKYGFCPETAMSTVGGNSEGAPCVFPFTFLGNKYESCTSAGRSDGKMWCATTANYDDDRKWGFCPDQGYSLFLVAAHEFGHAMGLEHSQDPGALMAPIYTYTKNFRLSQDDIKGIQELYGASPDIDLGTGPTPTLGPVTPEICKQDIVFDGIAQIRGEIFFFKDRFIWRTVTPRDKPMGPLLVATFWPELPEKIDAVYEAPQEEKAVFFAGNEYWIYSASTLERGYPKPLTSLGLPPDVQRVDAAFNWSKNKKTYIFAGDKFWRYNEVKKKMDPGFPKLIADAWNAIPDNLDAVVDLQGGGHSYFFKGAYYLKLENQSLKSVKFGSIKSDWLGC
In words: MMP-2 inhibition (off-target). The data set is classed as biochemical. The note with it: read-out: MMP-2 % inhibition at 100 µM. As for the experimental part: 3.1 In vitro inhibition assays […]
MMPs, TACE). All in vitro inhibition assays were performed as described previously.[10] TACE inhibitor screening kits were purchased from Sigma-Aldrich (Saint Louis, MO). MMPs along with the SensoLyte 520 Generic MMP Activity Kit Fluorimetric were purchased from AnaSpec (Fremont, CA, USA). The assays were performed according to the guidelines of the respective manufacturer. Fluorescence signals were measured using a CLARIOstar plate reader (BMG Labtech, Ortenberg, Germany). […]
3.8 Test against zinc metalloproteases MMP1–3 and TACE (ADAM17), and testing of
We selected a panel of human off -targets, including three human matrix metalloproteases (MMP-1, -2 and -3) and TACE (ADAM-17). These assays were performed as described previously.[3] The TACE inhibitor screening kit was purchased from Sigma -Aldrich (Saint Louis, MO). MMPs along with the SensoLyte 520 Generic MMP Activity Kit Fluorimetric were purchased from AnaSpec (Fremont, CA, USA). The assays were performed according to the guidelines of the respective manufacturer. Fluorescence signals were measured using a CLARIOstar plate reader (BMG Labtech, Ortenberg, Germany). […]
Table S6: Percent (%) inhibition of three MMPs (1 –3) and TACE (ADAM17) in presence of selected LasB inhibitors at 100 µM. Results are means and SD of at least two independent experiments. […]
Compound [% inhibition at [% inhibition at [% inhibition at [% inhibition at 100

Data set [5] addresses T1, LasB. In words: KC/LasB co-incubation study (ELISA). The class given is biochemical. As to conditions: 100 µM (R)-30, 100 nM LasB, 10 min. As for the experimental part: Figure S15: MS-based quantification of (R)-30 levels in serum and eye homogenate. Concentrations were determined after single treatment ((R)-30 alone) or after combination with Meropenem.
To test whether KC might be a substrate for LasB, an ELISA was used to quantify KC levels after co-incubation with LasB. Briefly, 500 pg/ml of the recombinant murine KC standard (R&D part 840327) was incubated for 10 minutes in PBS supplemented with 1% BSA and 0.1% DMSO (vehicle control), LasB (100 nM), (R)-30 (100 µM), or a combination of both. Detection of KC and absorbance measurements were performed as described above (3.11).
(also on this page, place not known: Serum Eye homogenate 100 1000 concentrations Concentration [ng/mL] Meropenem + (R)-30 (R)-30 , 10 LasB (R)-30)
(1 picture or pasted object on this page, not shown here)

Data set [6] in a line: Stability in mouse liver microsomes. The class given is in vitro ADME. The note with it: read-out: Mouse Liver Microsomes t1/2. As for the experimental part: (§1) Samples were stored on ice until the end of the incubation and precipitated protein was removed by centrifugation (15 min, 4 °C, 4,000 g). Concentration of the remaining test […]
(§2) compound at the different time points was analyzed by HPLC-MS/MS (TSQ Quantum Access […]
(§3) MAX, Thermo Fisher, Dreieich, Germany) and used to determine half -life (t1/2) and intrinsic […]
(§4) Species profiling was conducted as above using 0.5 mg/mL pooled mouse, rat or minipig liver microsomes (Xenotech, Kansas City, USA) with 2 mM NADPH and 10 mM MgCl2 and testosterone, verapamil and ketoconazole as reference compounds. […]
(§5) Thermo Fisher, Dreieich, Germany) and used to determine half-life (t1/2).
(§6) Table S2: Additional in vitro ADMET data for selected dipeptides. n.d.: not determined.
(§7) Kinetic Liver S9 Clint [µL/mg/min] Plasma t1/2 [min] LogD7.4 […]
(§8) pH 7.4 [µM] Mouse Human Mouse Human

The nature of data set [7]: Stability in minipig liver microsomes. As to conditions: Göttingen, read-out: Minipig Liver Microsomes t1/2. The data set is classed as in vitro ADME. As for the experimental part:
as §1, §2, §3, §4, §5, §6, §7, §8

Molecules are shown by their SMILES. Where “and” joins values, the source holds several entries; their conditions need not be identical. Identical values can stand only once. Some results are limits rather than exact numbers.

T1 sequence (Q02RJ6 198-498): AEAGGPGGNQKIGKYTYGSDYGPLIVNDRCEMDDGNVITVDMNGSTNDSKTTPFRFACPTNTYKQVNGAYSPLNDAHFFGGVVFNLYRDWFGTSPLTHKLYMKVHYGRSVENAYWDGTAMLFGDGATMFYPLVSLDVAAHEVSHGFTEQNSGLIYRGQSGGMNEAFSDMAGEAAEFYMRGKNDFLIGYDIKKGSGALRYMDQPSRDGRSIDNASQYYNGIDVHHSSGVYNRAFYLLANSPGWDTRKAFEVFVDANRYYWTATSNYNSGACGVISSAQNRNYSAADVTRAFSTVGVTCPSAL

With `CC(C)C[C@H](C(=O)N[C@H](C(=O)Nc1ccc(-n2ccnc2)cc1)C(C)C)P(=O)(O)O` [(R)‐36], in data set [1], the IC50 stood at 10.9 ± 0.3 nM. For the same molecule, the inhibition at 100 µM in data set [2] and in data set [4] was less than 10% each time. The same molecule returned a chromatographic logD in data set [3] of -0.67.

`CC(=O)c1ccc(NC(=O)[C@@H](NC(=O)[C@@H](CC(C)C)P(=O)(O)O)C(C)C)cc1` [(R)‐30]: the IC50 in data set [1] is 4 nM and 3.7 nM. The inhibition at 100 µM in data set [2] and in data set [4] was less than 10% throughout. Besides, the “proteolytic activity of LasB on KC” value in data set [5] is “effectively blocked”.

In turn, `CC(C)CC(C(=O)N[C@H](C(=O)Nc1ccc(Cl)c(Cl)c1)C1CCCCC1)P(=O)(O)O` (some centres unmarked) [compound 14] gave an IC50 in data set [1] of 12.4 ± 0.3 nM. Besides, the inhibition at 100 µM is 13% in data set [2] and less than 10% in data set [4]. In addition, the chromatographic logD in data set [3] was 1.14.

Molecule `CC(C)CC(C(=O)N[C@H](C(=O)Nc1ccc(Cl)c(Cl)c1)C1CCC1)P(=O)(O)O` (some centres unmarked) [compound 13] displayed a half-maximal inhibitory concentration (IC50) in data set [1] of 11.9 ± 0.3 nM. The inhibition at 100 µM in data set [2] and in data set [4] was less than 10% in each case. The same molecule had a chromatographic logD in data set [3] of -0.58.

Take `CC(=O)c1ccc(NC(=O)[C@@H](NC(=O)C(CC(C)C)P(=O)(O)O)C(C)C)cc1` (some centres unmarked) [compound 30]: the half-life at 1 µM in data set [6] and in data set [7] was greater than 2 h in each case. In addition, in data set [1], the IC50 was found to be 5 ± 0.2 nM. The inhibition at 100 µM in data set [2] and in data set [4] was less than 10% throughout.

Regarding `CC(C)CC(C(=O)N[C@H](C(=O)Nc1ccc(Cl)c(Cl)c1)C(C)C)P(=O)(O)O` (some centres unmarked) [compound 9], the inhibition at 100 µM in data set [2] and in data set [4] was less than 10% in each case.
